Test results reported in a melting point compilation (Tetko et al.).

Row | Structure (SMILES) | melting point [°C]
1 | O=C(O)c1ccc(-n2cccc2)cc1 | 288 to 291
2 | OCc1cc(OCc2ccccc2)cc(OCc2ccccc2)c1 | 78 to 82
3 | CC12CC3(C)CC(C)(C1)CC(Br)(C2)C3 | 101 to 102
4 | O=C(O)[C@@H]1Cc2ccccc2CN1C(=O)OCc1ccccc1 | 137 to 141
5 | CC(CN1C(=O)c2cccnc2Nc2ccccc21)N(C)C (stereo unspecified) | 122
6 | O=Cc1cc(Cl)c(O)c(Cl)c1 | 154 to 156
7 | O=C(/C=C/C(=O)c1ccccc1)c1ccccc1 | 110 to 111
8 | CC(C)(C)c1ccc(C2CCC3(CC2)Cc2ccc(OS(=O)(=O)C(F)(F)F)cc2C3)cc1 (stereo unspecified) | 122 to 124
9 | COC(=O)c1c(C)noc1-c1cc(C)on1 | 84 to 86
10 | COS(=O)(=O)c1ccc([N+](=O)[O-])cc1 | 94
11 | Fc1ccc(C2(Cn3cncn3)OC2c2ccccc2Cl)cc1 (stereo unspecified) | 137
12 | O=[N+]([O-])c1ccc(S(=O)(=O)N2CCOCC2)cc1 | 173 to 175
13 | COc1ccccc1CN=C=S | 28
14 | Cc1ccc(C(=O)c2nn(-c3ccccc3)/c(=N\N=Cc3ccco3)s2)cc1 | 113
15 | CCCCCCCCCCCCCCCN | 37.3
16 | COC1(OC)CC[C@]2(C)[C@H]3CC[C@]4(C)C(=O)CC[C@@]4(O)[C@@H]3CC[C@@]2(C)C1 | 175 to 176
17 | CC(C)CCCCCCCOC(=O)c1ccccc1C(=O)OCCCCCCCC(C)C | -45.6
18 | CC(=O)C(F)(F)F | -78
19 | CC1C(=O)C23C4CC5C(C)(CO)CCCC56COC(CC1C2OC(C)(C)O4)C63 (stereo unspecified) | 220
20 | CNCCC(Oc1ccc(C(F)(F)F)cc1)c1ccccc1 (stereo unspecified) | 180
21 | COc1ccc2[nH]c(C)c(CC(=O)O)c2c1 | 162 to 165
22 | OC1OCC(OCc2ccccc2)C(OCc2ccccc2)C1OCc1ccccc1 (stereo unspecified) | 78

Row | Structure (SMILES) | melting point [°C]
23 | COC1CC2C3(C)CCCC2(COC3=O)C2C(OC(C)=O)CC3C(C)C(=O)C12C3O (stereo unspecified) | 105
24 | Cc1ccc(S(=O)(=O)c2ncsc2SCC(N)=O)cc1 | 204 to 206
25 | CCC(C)c1cc([N+](=O)[O-])cc([N+](=O)[O-])c1OC(=O)C=C(C)C (stereo unspecified) | 70
26 | O=C(Cl)c1cncc(Br)c1 | 84 to 86
27 | COc1ccc(C(N)=NO)c2ccccc12 | 175 to 176
28 | N#Cc1c(F)cccc1Cl | 58
29 | CC1(C)C(=O)N(Cl)C(=O)N1Br | 164
30 | O=C(CBr)c1cccs1 | 109 to 111
31 | Oc1ccc(C2CCCCC2)cc1Cl | 40.5
32 | CCCC(N)P(=O)(O)O (stereo unspecified) | 276 to 281
33 | CC(CO)C1CCC2C3CCC4=CC(=O)C=CC4(C)C3CCC12C (stereo unspecified) | 178 to 184
34 | COc1cc(C(=O)c2ccc(-c3ccccc3)cc2)c([N+](=O)[O-])cc1OC | 144 to 145
35 | CCCCCCCCCF | 1
36 | S=C(SSC(=S)N1CCCCC1)N1CCCCC1 | 138
37 | O=C(c1cccs1)c1noc(-c2ccc(Br)cc2)c1S(=O)(=O)c1ccccc1 | 130
38 | C=C(C)CCCCCCC | -64
39 | Cc1cc(O)cc(C)c1C | 106
40 | C(=NC(N=Cc1ccco1)c1ccco1)c1ccco1 (stereo unspecified) | 117
41 | O=C1C(Cl)=C(Cl)C(=O)N1c1ccc(F)cc1 | 241
42 | O=[N+]([O-])c1ccc2c(c1)Cc1cc([N+](=O)[O-])ccc1-2 | 334
43 | Cc1ccc(C(=O)NC(=Cc2ccccc2)C(=O)O)cc1 | 229 to 230
44 | COc1c(Cl)ccc(Cl)c1Cl | 45

Row | Structure (SMILES) | melting point [°C]
45 | O=C1NC(=O)C(=Cc2ccc(-c3ccccc3)o2)C(=O)N1 | 270
46 | CC(C)c1ccc2cc(C(C)C)ccc2c1 | 69
47 | Clc1ccc(-c2nnn[nH]2)cc1Cl | 161
48 | Cc1cc(Cl)c([N+](=O)[O-])cc1[N+](=O)[O-] | 90
49 | C=C(C)CNc1ccc(C(C)C(=O)O)cc1 (stereo unspecified) | 107
50 | c1ccc2c(c1)ccc1[nH]c3ccccc3c12 | 134
51 | Cc1nc2ccccc2n1CCCC(=O)O | 234 to 238
52 | O=P(O)(O)OC1C(O)C(O)C(O)C(O)C1O (stereo unspecified) | 195
53 | CN(N=O)c1ccccc1 | 14.7
54 | COc1ccc([N+](=O)[O-])c(I)c1 | 68 to 73
55 | Cc1oc(-c2ccccc2)cc1C(=O)Cl | 85 to 88
56 | CCOC(=O)C1=Nc2cc3c(cc2=C1OC(C)=O)C(OC(C)=O)=C(C(=O)OCC)N=3 | 178
57 | CCOC(=O)N1CCNCC1 | 120
58 | COc1cc(C2c3cc4c(cc3C(O)C3COC(=O)C23)OCO4)cc(OC)c1OC (stereo unspecified) | 228
59 | CC(C)OC(=O)C1(S(=O)(=O)c2ccc(Cl)cc2)CC1 | 89.8
60 | NNC(=O)c1cccc(Cl)c1 | 158
61 | Cc1cc(N)cc(C)n1 | 192
62 | N[C@@H](Cc1cc(Br)c(O)c(Br)c1)C(=O)O | 245
63 | Nc1ccccc1C=Cc1cc(/C=C/c2ccccc2)c(N)cc1N | 146
64 | Cc1c(C(N)=O)[nH]c2ccccc12 | 170 to 172
65 | COC(=O)CC(=O)CCl | 14 to 16
66 | COC(=O)c1c(C)n[nH]c1C | 83

Row | Structure (SMILES) | melting point [°C]
67 | O=C(c1nn2c(nc(=O)c3ccccc32)s1)c1cccc2ccccc12 | 241
68 | O=C(C=Cc1ccc(C=CC(=O)Nc2ccccc2)cc1)Nc1ccccc1 | 292 to 294
69 | CC(O)(c1ccccc1)c1ccccc1 | 80
70 | O=C1NC(=O)C(=NNc2cccc([N+](=O)[O-])c2)C(=O)N1 | 270
71 | COC(=O)CCCCCCCCC(=O)OC | 38
72 | N#CC12CCN(CC1)CC2 | 133
73 | O=C1c2ccccc2C(=O)c2c1ccc([N+](=O)[O-])c2[N+](=O)[O-] | 341
74 | CC(C)n1nnc2cc(C(=O)O)ccc21 | 222 to 227
75 | FC(F)(F)CBr | -93.9
76 | C=CC(=O)OCCOCC | -47
77 | c1ccc(O[Si]23OCCN(CCO2)CCO3)cc1 | 218
78 | O=C(O)C(F)(F)C(F)(F)C(F)(F)C(=O)O | 94.5
79 | CC(C)(CO)C(=O)O | 124
80 | Cc1nc(-c2ccc(N)cc2)no1 | 113 to 114
81 | O=[N+]([O-])c1ccc(C=Cc2ccc([N+](=O)[O-])cc2S(=O)(=O)Oc2ccccc2)c(S(=O)(=O)Oc2ccccc2)c1 | 192
82 | NC(=O)c1cccc2c1OCCO2 | 130 to 132
83 | Nc1c2ccccc2nc2ccccc12 | 241
84 | CN1CC(Br)C(=O)NC1=O (stereo unspecified) | 153 to 155
85 | CCCCCCNC(=O)c1ccc(O)c(O)c1 | 140
86 | CN(C(=S)Cl)c1ccc(Br)cc1 | 101 to 104
87 | CC(C)(C)N(NC(=O)c1ccccc1)C(=O)c1cccc(F)c1 | 176

The next lines start with the values.

Row | melting point [°C] | Structure (SMILES)
88 | 29 to 31 | Cc1ccc(S(=O)(=O)OCC2COC(C)(C)O2)cc1 (stereo unspecified)
89 | 57 | Cc1c(S(=O)(=O)Cl)cnn1-c1ccccc1
90 | 134 to 137 | Fc1cc(Br)c(I)c(Br)c1
91 | 128 to 130 | OCc1cc(Cl)nc(Cl)c1
92 | 62.5 | CCCC(C)(CO)CO
93 | 187 to 189 | O=C(O)c1cccnc1Oc1ccc(F)cc1
94 | 56 to 58 | Cc1nc(C=O)cs1
95 | 32 | COc1ccc(N=C=O)c(OC)c1
96 | 95 | CC1CCC(C)(COC(=O)c2ccc([N+](=O)[O-])cc2)C1(C)C (stereo unspecified)
97 | 300 | S=c1oc(-c2cc3ccccc3o2)nn1CCl
98 | 72 | O=C1C(CCl)(CCl)CCC1(CCl)CCl
99 | 128 | CON=C(C(=O)NC1C(=O)N2C(C(=O)OCOC(=O)C(C)(C)C)=C(C=Cc3scnc3C)CSC12)c1csc(N)n1 (stereo unspecified)
100 | 50 to 53 | CCCCCCCCC(=O)Oc1ccc(/N=N/c2ccc(CCCC)cc2)cc1
101 | 295 | COc1ccccc1/N=N/c1c(N)nn2c(C(F)(F)F)cc(=O)[nH]c12
102 | 138 to 140 | Cc1nc(/C(C#N)=C\c2ccc(Cl)cc2Cl)sc1/N=N/c1ccc(F)cc1
103 | 134 to 138 | Cc1nc2scc(-c3ccccc3)c2c(=O)n1NC(=O)c1cccc(C(F)(F)F)c1
104 | 55 to 59 | CNC(=O)Cc1ccccc1
105 | 256 | O=C(Nc1ccc(Cl)cc1)Nc1ccc(Cl)c(Cl)c1
106 | 56.8 | CC=CC=CC=CC=O
107 | 209 to 210 | O=C(C=Cc1ccc2c(c1)OCO2)c1ccc(O)cc1

Row | melting point [°C] | Structure (SMILES)
108 | 78 | O=Cc1ccc(O)c(OC(F)(F)F)c1
109 | 47 | Cc1ccc(Br)cc1[N+](=O)[O-]
110 | 132 | COc1cc(CCn2cccc2C(=O)O)cc(OC)c1OC
111 | 93.5 | CC(C)NNC(=O)COc1ccc(Cl)cc1
112 | 133 | CCOC(=O)Oc1c(-c2ccccc2)n(C(C)=O)c2cc([N+](=O)[O-])ccc12
113 | 98 | Nc1c(Br)cc(F)c(Cl)c1Br
114 | 27 | Ic1ccccc1I
115 | 89 to 90 | Cc1ccc(OC(C)(C)C(=O)O)c2c1CCC2
116 | 106 | Oc1ccc(O)c(Cc2ccccc2)c1
117 | 175 to 177 | Cn1c(S)nnc1-c1ccc(Cl)cc1Cl
118 | -49 | CC(=O)C=CC1=C(C)CCCC1(C)C
119 | 45 to 47 | N#CCCOc1ccc(Cl)cc1
120 | 202 to 203 | CC(=O)Oc1ccccc1C1NC(=O)NC(C)=C1C(=O)OCc1ccccc1 (stereo unspecified)
121 | 73 | BrCCc1ccc(CCBr)cc1
122 | 166 | COC(=O)c1cccc(C(=O)O)c1
123 | 101 | CCC(C)(C(N)=O)c1ccccc1 (stereo unspecified)
124 | 120 to 123 | Cn1nc(C2CC2)cc1N
125 | 128 to 130 | NC(=S)CS(=O)(=O)Cc1ccco1
126 | 161 | COc1ccc2c(C)cc(=O)oc2c1
